According to the supplement of paper PMC10307832:

How the values were obtained:
Assay in all cases: relative viability (nuclei count vs DMSO), 5 days (fraction); higher = more cells survive
[1] = compound: CS(=O)(=O)c1ccc(C(=O)Nc2ccc(Cl)c(-c3ccccn3)c2)c(Cl)c1 [Vismodegib] + C[C@]1(O)C[C@@H](c2nc(-c3ccc4ccc(-c5ccccc5)nc4c3)c3c(N)nccn32)C1 [Linsitinib] (partner 1 µM)
How it was run: (§1)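 Lung cancer cell lines were seeded in 1536-well plates and dosed by pin tool the next day, with either a single drug or a fixed anchor-drug dose combined with five library-drug doses (not always all listed) spaced in √10 steps. Five days later, one step fixed the cells and stained their nuclei (final 0.05% Triton X-100, 1% formaldehyde, 1 ug/ml Hoechst), and nuclei were counted on 4× images. Relative viability is the nuclei count in treated wells divided by the count in vehicle wells, and each value is the median of duplicate plates.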

[2] = compound: CS(=O)(=O)c1ccc(C(=O)Nc2ccc(Cl)c(-c3ccccn3)c2)c(Cl)c1 [Vismodegib] + CC(=O)c1c(C)c2cnc(Nc3ccc(N4CCNCC4)cn3)nc2n(C2CCCC2)c1=O [Palbociclib] (partner 0.5 µM)
How it was run: as §1

[3] = compound: N#CC[C@H](C1CCCC1)n1cc(-c2ncnc3[nH]ccc23)cn1 [Ruxolitinib] + C[C@]1(O)C[C@@H](c2nc(-c3ccc4ccc(-c5ccccc5)nc4c3)c3c(N)nccn32)C1 [Linsitinib] (partner 1 µM)
How it was run: as §1

[4] = compound: CS(=O)(=O)c1ccc(C(=O)Nc2ccc(Cl)c(-c3ccccn3)c2)c(Cl)c1 [Vismodegib] + O=C(CCCCCCC(=O)Nc1ccccc1)NO [Vorinostat] (partner 1 µM)
How it was run: as §1

NCI-H23
relative viability ([1]; first compound 0.08 µM): 0.591
relative viability ([1]; first compound 0.253 µM): 0.511
relative viability ([1]; first compound 0.8 µM): 0.643
relative viability ([1]; first compound 2.53 µM): 0.488
relative viability ([1]; first compound 8 µM): 0.677
relative viability ([2]; first compound 0.08 µM): 0.505
relative viability ([2]; first compound 0.253 µM): 0.439
relative viability ([2]; first compound 0.8 µM): 0.544
relative viability ([2]; first compound 2.53 µM): 0.412
relative viability ([2]; first compound 8 µM): 0.522
relative viability ([3]; first compound 0.08 µM): 0.579
relative viability ([3]; first compound 0.253 µM): 0.694
relative viability ([3]; first compound 0.8 µM): 0.799
relative viability ([3]; first compound 2.53 µM): 0.485
relative viability ([3]; first compound 8 µM): 0.612
relative viability ([4]; first compound 0.08 µM): 0.622
relative viability ([4]; first compound 0.253 µM): 0.568
relative viability ([4]; first compound 0.8 µM): 0.496
relative viability ([4]; first compound 2.53 µM): 0.434
relative viability ([4]; first compound 8 µM): 0.571

H3255
relative viability ([1]; first compound 0.08 µM): 0.967
relative viability ([1]; first compound 0.253 µM): 0.88
relative viability ([1]; first compound 0.8 µM): 1
relative viability ([1]; first compound 2.53 µM): 0.959
relative viability ([1]; first compound 8 µM): 0.897
relative viability ([2]; first compound 0.08 µM): 0.296
relative viability ([2]; first compound 0.253 µM): 0.29
relative viability ([2]; first compound 0.8 µM): 0.292
relative viability ([2]; first compound 2.53 µM): 0.33
relative viability ([2]; first compound 8 µM): 0.324
relative viability ([3]; first compound 0.08 µM): 0.464
relative viability ([3]; first compound 0.253 µM): 0.887
relative viability ([3]; first compound 0.8 µM): 1.17
relative viability ([3]; first compound 2.53 µM): 0.706
relative viability ([3]; first compound 8 µM): 0.86
relative viability ([4]; first compound 0.08 µM): 0.488
relative viability ([4]; first compound 0.253 µM): 0.747
relative viability ([4]; first compound 0.8 µM): 0.915
relative viability ([4]; first compound 2.53 µM): 0.835
relative viability ([4]; first compound 8 µM): 0.782

NCI-H1651
relative viability ([1]; first compound 0.08 µM): 0.922
relative viability ([1]; first compound 0.253 µM): 0.924
relative viability ([1]; first compound 0.8 µM): 0.925
relative viability ([1]; first compound 2.53 µM): 0.931
relative viability ([1]; first compound 8 µM): 0.961
relative viability ([2]; first compound 0.08 µM): 0.463
relative viability ([2]; first compound 0.253 µM): 0.511
relative viability ([2]; first compound 0.8 µM): 0.502
relative viability ([2]; first compound 2.53 µM): 0.51
relative viability ([2]; first compound 8 µM): 0.54
relative viability ([3]; first compound 0.08 µM): 0.949
relative viability ([3]; first compound 0.253 µM): 0.864
relative viability ([3]; first compound 0.8 µM): 1
relative viability ([3]; first compound 2.53 µM): 0.929
relative viability ([3]; first compound 8 µM): 0.964
relative viability ([4]; first compound 0.08 µM): 0.581
relative viability ([4]; first compound 0.253 µM): 0.582
relative viability ([4]; first compound 0.8 µM): 0.547
relative viability ([4]; first compound 2.53 µM): 0.49
relative viability ([4]; first compound 8 µM): 0.503

NCI-H1734
relative viability ([1]; first compound 0.08 µM): 0.878
relative viability ([1]; first compound 0.253 µM): 0.831
relative viability ([1]; first compound 0.8 µM): 0.878
relative viability ([1]; first compound 2.53 µM): 0.825
relative viability ([1]; first compound 8 µM): 1.01
relative viability ([2]; first compound 0.08 µM): 0.372
relative viability ([2]; first compound 0.253 µM): 0.348
relative viability ([2]; first compound 0.8 µM): 0.364
relative viability ([2]; first compound 2.53 µM): 0.255
relative viability ([2]; first compound 8 µM): 0.358
relative viability ([3]; first compound 0.08 µM): 0.852
relative viability ([3]; first compound 0.253 µM): 0.752
relative viability ([3]; first compound 0.8 µM): 0.794
relative viability ([3]; first compound 2.53 µM): 0.8
relative viability ([3]; first compound 8 µM): 0.821
relative viability ([4]; first compound 0.08 µM): 0.791
relative viability ([4]; first compound 0.253 µM): 0.732
relative viability ([4]; first compound 0.8 µM): 0.821
relative viability ([4]; first compound 2.53 µM): 0.723
relative viability ([4]; first compound 8 µM): 0.737

CAL-12T
relative viability ([1]; first compound 0.08 µM): 0.927
relative viability ([1]; first compound 0.253 µM): 0.765
relative viability ([1]; first compound 0.8 µM): 0.95
relative viability ([1]; first compound 2.53 µM): 0.722
relative viability ([1]; first compound 8 µM): 0.679
relative viability ([2]; first compound 0.08 µM): 0.45
relative viability ([2]; first compound 0.253 µM): 0.499
relative viability ([2]; first compound 0.8 µM): 0.569
relative viability ([2]; first compound 2.53 µM): 0.454
relative viability ([2]; first compound 8 µM): 0.442
relative viability ([3]; first compound 0.08 µM): 0.819
relative viability ([3]; first compound 0.253 µM): 0.744
relative viability ([3]; first compound 0.8 µM): 0.853
relative viability ([3]; first compound 2.53 µM): 0.614
relative viability ([3]; first compound 8 µM): 0.7
relative viability ([4]; first compound 0.08 µM): 0.894
relative viability ([4]; first compound 0.253 µM): 0.699
relative viability ([4]; first compound 0.8 µM): 0.787
relative viability ([4]; first compound 2.53 µM): 0.705
relative viability ([4]; first compound 8 µM): 0.799

NCI-H1993
relative viability ([1]; first compound 0.08 µM): 0.737
relative viability ([1]; first compound 0.253 µM): 0.816
relative viability ([1]; first compound 0.8 µM): 0.669
relative viability ([1]; first compound 2.53 µM): 0.677
relative viability ([1]; first compound 8 µM): 0.775
relative viability ([2]; first compound 0.08 µM): 0.699
relative viability ([2]; first compound 0.253 µM): 0.682
relative viability ([2]; first compound 0.8 µM): 0.636
relative viability ([2]; first compound 2.53 µM): 0.568
relative viability ([2]; first compound 8 µM): 0.565
relative viability ([3]; first compound 0.08 µM): 0.785
relative viability ([3]; first compound 0.253 µM): 0.783
relative viability ([3]; first compound 0.8 µM): 0.779
relative viability ([3]; first compound 2.53 µM): 0.801
relative viability ([3]; first compound 8 µM): 0.796
relative viability ([4]; first compound 0.08 µM): 0.854
relative viability ([4]; first compound 0.253 µM): 0.69
relative viability ([4]; first compound 0.8 µM): 0.728
relative viability ([4]; first compound 2.53 µM): 0.779
relative viability ([4]; first compound 8 µM): 0.794

NCI-H1755
relative viability ([1]; first compound 0.08 µM): 0.926
relative viability ([1]; first compound 0.253 µM): 0.969
relative viability ([1]; first compound 0.8 µM): 1.02
relative viability ([1]; first compound 2.53 µM): 1
relative viability ([1]; first compound 8 µM): 0.999
relative viability ([2]; first compound 0.08 µM): 0.49
relative viability ([2]; first compound 0.253 µM): 0.456
relative viability ([2]; first compound 0.8 µM): 0.409
relative viability ([2]; first compound 2.53 µM): 0.368
relative viability ([2]; first compound 8 µM): 0.502
relative viability ([3]; first compound 0.08 µM): 1
relative viability ([3]; first compound 0.253 µM): 0.961
relative viability ([3]; first compound 0.8 µM): 0.971
relative viability ([3]; first compound 2.53 µM): 0.9
relative viability ([3]; first compound 8 µM): 0.817
relative viability ([4]; first compound 0.08 µM): 0.836
relative viability ([4]; first compound 0.253 µM): 0.659
relative viability ([4]; first compound 0.8 µM): 0.85
relative viability ([4]; first compound 2.53 µM): 0.809
relative viability ([4]; first compound 8 µM): 0.762

SK-LU-1
relative viability ([1]; first compound 0.08 µM): 1.35
relative viability ([1]; first compound 0.253 µM): 1.06
relative viability ([1]; first compound 0.8 µM): 1.23
relative viability ([1]; first compound 2.53 µM): 0.693
relative viability ([1]; first compound 8 µM): 1.13
relative viability ([2]; first compound 0.08 µM): 0.407
relative viability ([2]; first compound 0.253 µM): 0.416
relative viability ([2]; first compound 0.8 µM): 0.416
relative viability ([2]; first compound 2.53 µM): 0.376
relative viability ([2]; first compound 8 µM): 0.384
relative viability ([3]; first compound 0.08 µM): 1.16
relative viability ([3]; first compound 0.253 µM): 1.19
relative viability ([3]; first compound 0.8 µM): 1.27
relative viability ([3]; first compound 2.53 µM): 0.974
relative viability ([3]; first compound 8 µM): 0.945
relative viability ([4]; first compound 0.08 µM): 0.718
relative viability ([4]; first compound 0.253 µM): 0.827
relative viability ([4]; first compound 0.8 µM): 0.784
relative viability ([4]; first compound 2.53 µM): 0.718
relative viability ([4]; first compound 8 µM): 0.842
